Values after ≈ are worked out from the molar mass of the structure shown. Where two headings read alike, the source gives them in different places.
Legend:
[1] = target: T1, PBP3 from Pseudomonas aeruginosa (PAO1) (Pseudomonas aeruginosa, UniProt G3XD46); assay: Bocillin-FL fluorescence polarization competition binding, P. aeruginosa PBP3; details: Binding affinity to P. aeruginosa PBP3; fluorescence polarization competition binding assay using Bocillin-FL; read-out: P. aeruginosa PBP3 Potency
T1 construct: made in house
T1 sequence (G3XD46 whole entry): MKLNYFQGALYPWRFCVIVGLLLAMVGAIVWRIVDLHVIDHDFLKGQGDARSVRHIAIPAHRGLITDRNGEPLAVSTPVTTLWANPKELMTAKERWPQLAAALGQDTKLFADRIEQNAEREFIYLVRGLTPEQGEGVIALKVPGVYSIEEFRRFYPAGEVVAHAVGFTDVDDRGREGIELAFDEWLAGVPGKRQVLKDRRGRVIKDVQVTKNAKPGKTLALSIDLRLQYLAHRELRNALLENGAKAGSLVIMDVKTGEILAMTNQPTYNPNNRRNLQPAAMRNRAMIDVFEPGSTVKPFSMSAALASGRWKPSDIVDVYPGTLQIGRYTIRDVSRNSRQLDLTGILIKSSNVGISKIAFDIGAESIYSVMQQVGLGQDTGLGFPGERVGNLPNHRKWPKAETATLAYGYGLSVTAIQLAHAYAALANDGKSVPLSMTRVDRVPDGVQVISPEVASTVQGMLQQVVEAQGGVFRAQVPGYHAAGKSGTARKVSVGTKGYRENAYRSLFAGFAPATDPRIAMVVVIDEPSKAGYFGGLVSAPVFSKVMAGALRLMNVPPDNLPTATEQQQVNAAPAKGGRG
How it was run: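 Purified PBPs pre-incubated with inhibitor (E. coli PBP3 1.5 μM, 30 min; P. aeruginosa PBP3 0.75 μM, A. baumannii PBP1a 1 μM and PBP3 0.2 μM, 15 min), then Bocillin-FL 0.1 μM (0.05 μM for PBP1a) added; FP read up to 60 min. EC50 = concentration halving bound Bocillin-FL.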

P. aeruginosa ATCC 27853 = assay: microbe, parasite or virus in culture; assay type: cell-based; details: Pseudomonas aeruginosa, ATCC27853, read-out: Minimum inhibitory concentration, P. aeruginosa ATCC 27853
P. aeruginosa CDC-0095 = assay: microbe, parasite or virus in culture; assay type: cell-based; details: Pseudomonas aeruginosa, CDC0095, read-out: Minimum inhibitory concentration, P. aeruginosa CDC-0095
A. baumannii CDC-0036 = assay: microbe, parasite or virus in culture; assay type: cell-based; details: Acinetobacter baumannii, CDC0036, read-out: MIC, A. baumannii CDC-0036
A. baumannii CDC-0045 = assay: microbe, parasite or virus in culture; assay type: cell-based; details: Acinetobacter baumannii, CDC0045, read-out: MIC, A. baumannii CDC-0045
[2] = test system: B. thailandensis ATCC 700388; assay: microbe, parasite or virus in culture; assay type: cell-based; details: Burkholderia thailandensis, ATCC700388, read-out: Minimum inhibitory concentration (MIC), B. thailandensis ATCC 700388
[3] = test system: B. humptydooensis ATCC BAA-2767; assay: microbe, parasite or virus in culture; assay type: cell-based; details: Burkholderia humptydooensis, ATCCBAA2767, read-out: Minimum inhibitory concentration (MIC), B. humptydooensis ATCC BAA-2767
P. aeruginosa CDC-0110 = assay: microbe, parasite or virus in culture; assay type: cell-based; details: Pseudomonas aeruginosa, CDC0110, read-out: Minimum inhibitory concentration, P. aeruginosa CDC-0110
N. gonorrhoeae FA1090 = assay: Liquid broth MIC in Fastidious broth; details: Neisseria gonorrhoeae
N. gonorrhoeae WHO G = assay: Liquid broth MIC in Fastidious broth; details: Neisseria gonorrhoeae
N. gonorrhoeae WHO L = assay: Liquid broth MIC in Fastidious broth; details: Neisseria gonorrhoeae
N. gonorrhoeae WHO Q = assay: Liquid broth MIC in Fastidious broth; details: Neisseria gonorrhoeae
[4] = FA1090, read-out: Minimum Inhibitory Concentration, FA 1090
[5] = read-out: Minimum Inhibitory Concentration, WHO G
[6] = read-out: Minimum Inhibitory Concentration, WHO L
[7] = read-out: Minimum Inhibitory Concentration, WHO Q
[8] = FA1090, read-out: Minimum Inhibitory Concentration (MIC), N. gonorrhoeae FA 1090
[9] = read-out: Minimum Inhibitory Concentration (MIC), N. gonorrhoeae WHO G
[10] = read-out: Minimum Inhibitory Concentration (MIC), N. gonorrhoeae WHO L
[11] = read-out: Minimum Inhibitory Concentration (MIC), N. gonorrhoeae WHO Q

## O=C(NCCCN1CCN(C(=O)NC(C(=O)N[C@H]2Cc3ccc(F)c(C(=O)O)c3OB2O)c2cc(F)c(O)c(O)c2Cl)C1=O)Nc1cccnc1 (stereo partly drawn) [Example 259, (3R)-3-(2-(2-chloro-5-fluoro-3,4-dihydroxyphenyl)-2-(2-oxo-3-(3-(3-(pyridin-3-yl)ureido)propyl)imidazolidine-1-carboxamido)acetamido)-7-fluoro-2-hydroxy-3,4-dihydro-2H-benzo[e][1,2]oxaborinine-8-carboxylic acid]
[1]
  IC50: < 10 µM
P. aeruginosa ATCC 27853
  MIC: < 1 µg/mL
P. aeruginosa CDC-0095
  MIC: 2 to 4 µg/mL (≈ 2.73 to 5.47 µM)
A. baumannii CDC-0036
  MIC: < 1 µg/mL
A. baumannii CDC-0045
  MIC: < 1 µg/mL
[2]
  MIC: < 1 µg/mL
[3]
  MIC: < 1 µg/mL
P. aeruginosa CDC-0110
  MIC: < 1 µg/mL
N. gonorrhoeae FA1090; [4]
  MIC: 1 to 2 µg/mL (≈ 1.37 to 2.73 µM)
N. gonorrhoeae WHO G; [5]
  MIC: 16 to 32 µg/mL (≈ 21.9 to 43.7 µM)
N. gonorrhoeae WHO L; [6]
  MIC: > 64 µg/mL
N. gonorrhoeae WHO Q; [7]
  MIC: 16 to 32 µg/mL (≈ 21.9 to 43.7 µM)

## O=C(NCCN1CCN(C(=O)NC(C(=O)N[C@H]2Cc3ccc(F)c(C(=O)O)c3OB2O)c2cc(F)c(O)c(O)c2Cl)C1=O)c1ccncc1 (stereo partly drawn) [Example 245, (3R)-3-(2-(2-chloro-5-fluoro-3,4-dihydroxyphenyl)-2-(3-(2-(isonicotinamido)ethyl)-2-oxoimidazolidine-1-carboxamido)acetamido)-7-fluoro-2-hydroxy-3,4-dihydro-2H-benzo[e][1,2]oxaborinine-8-carboxylic acid]
[1]
  IC50: < 10 µM
P. aeruginosa ATCC 27853
  MIC: 2 to 4 µg/mL (≈ 2.85 to 5.69 µM)
P. aeruginosa CDC-0095
  MIC: 2 to 4 µg/mL (≈ 2.85 to 5.69 µM)
A. baumannii CDC-0036
  MIC: 2 to 4 µg/mL (≈ 2.85 to 5.69 µM)
A. baumannii CDC-0045
  MIC: < 1 µg/mL
[2]
  MIC: 2 to 4 µg/mL (≈ 2.85 to 5.69 µM)
[3]
  MIC: < 1 µg/mL
P. aeruginosa CDC-0110
  MIC: < 1 µg/mL
N. gonorrhoeae FA1090; [8]
  MIC: 4 to 8 µg/mL (≈ 5.69 to 11.4 µM)
N. gonorrhoeae WHO G; [9]
  MIC: 16 to 32 µg/mL (≈ 22.8 to 45.5 µM)
N. gonorrhoeae WHO L; [10]
  MIC: > 64 µg/mL
N. gonorrhoeae WHO Q; [11]
  MIC: > 64 µg/mL

## O=C(NCCCN1CCN(C(=O)N[C@H](C(=O)N[C@H]2Cc3ccc(F)c(C(=O)O)c3OB2O)c2cc(F)c(O)c(O)c2Cl)C1=O)c1ccccc1 [Example 252, (R)-3-((S)-2-(3-(3-benzamidopropyl)-2-oxoimidazolidine-1-carboxamido)-2-(2-chloro-5-fluoro-3,4-dihydroxyphenyl)acetamido)-7-fluoro-2-hydroxy-3,4-dihydro-2H-benzo[e][1,2]oxaborinine-8-carboxylic acid]
[1]
  IC50: > 250 µM
P. aeruginosa ATCC 27853
  MIC: > 128 µg/mL
P. aeruginosa CDC-0095
  MIC: > 128 µg/mL
A. baumannii CDC-0036
  MIC: > 128 µg/mL
A. baumannii CDC-0045
  MIC: > 128 µg/mL
[2]
  MIC: > 128 µg/mL
[3]
  MIC: > 128 µg/mL
P. aeruginosa CDC-0110
  MIC: > 128 µg/mL
N. gonorrhoeae FA1090; [4]
  MIC: > 64 µg/mL
N. gonorrhoeae WHO G; [5]
  MIC: > 64 µg/mL
N. gonorrhoeae WHO L; [6]
  MIC: > 64 µg/mL
N. gonorrhoeae WHO Q; [7]
  MIC: > 64 µg/mL

## O=C(CN1CCN(C(=O)NC(C(=O)N[C@H]2Cc3ccc(F)c(C(=O)O)c3OB2O)c2cc(F)c(O)c(O)c2Cl)C(=O)C1=O)Nc1nccs1 (stereo partly drawn) [Example 235, (3R)-3-(2-(2-chloro-5-fluoro-3,4-dihydroxyphenyl)-2-(2,3-dioxo-4-(2-oxo-2-(thiazol-2-ylamino)ethyl)piperazine-1-carboxamido)acetamido)-7-fluoro-2-hydroxy-3,4-dihydro-2H-benzo[e][1,2]oxaborinine-8-carboxylic acid]
[1]
  IC50: < 10 µM
P. aeruginosa ATCC 27853
  MIC: 2 to 4 µg/mL (≈ 2.77 to 5.53 µM)
P. aeruginosa CDC-0095
  MIC: 2 to 4 µg/mL (≈ 2.77 to 5.53 µM)
A. baumannii CDC-0036
  MIC: 2 to 4 µg/mL (≈ 2.77 to 5.53 µM)
A. baumannii CDC-0045
  MIC: 2 to 4 µg/mL (≈ 2.77 to 5.53 µM)
[2]
  MIC: 8 to 16 µg/mL (≈ 11.1 to 22.1 µM)
[3]
  MIC: < 1 µg/mL
P. aeruginosa CDC-0110
  MIC: < 1 µg/mL
N. gonorrhoeae FA1090; [8]
  MIC: 1 to 2 µg/mL (≈ 1.38 to 2.77 µM)
N. gonorrhoeae WHO G; [9]
  MIC: 4 to 8 µg/mL (≈ 5.53 to 11.1 µM)
N. gonorrhoeae WHO L; [10]
  MIC: > 64 µg/mL
N. gonorrhoeae WHO Q; [11]
  MIC: 16 to 32 µg/mL (≈ 22.1 to 44.3 µM)

## CN(CCN1CCN(C(=O)N[C@@H](C(=O)N[C@H]2Cc3ccc(F)c(C(=O)O)c3OB2O)c2cc(F)c(O)c(O)c2Cl)C(=O)C1=O)Cc1ccc(C(N)=O)cc1 [Example 226, (R)-3-((R)-2-(4-(2-((4-carbamoylbenzyl)(methyl)amino)ethyl)-2,3-dioxopiperazine-1-carboxamido)-2-(2-chloro-5-fluoro-3,4-dihydroxyphenyl)acetamido)-7-fluoro-2-hydroxy-3,4-dihydro-2H-benzo[e][1,2]oxaborinine-8-carboxylic acid]
[1]
  IC50: < 10 µM
P. aeruginosa ATCC 27853
  MIC: 2 to 4 µg/mL (≈ 2.59 to 5.18 µM)
P. aeruginosa CDC-0095
  MIC: 2 to 4 µg/mL (≈ 2.59 to 5.18 µM)
A. baumannii CDC-0036
  MIC: 2 to 4 µg/mL (≈ 2.59 to 5.18 µM)
A. baumannii CDC-0045
  MIC: < 1 µg/mL
[2]
  MIC: < 1 µg/mL
[3]
  MIC: < 1 µg/mL
P. aeruginosa CDC-0110
  MIC: < 1 µg/mL
N. gonorrhoeae FA1090; [8]
  MIC: 1 to 2 µg/mL (≈ 1.29 to 2.59 µM)
N. gonorrhoeae WHO G; [9]
  MIC: 16 to 32 µg/mL (≈ 20.7 to 41.4 µM)
N. gonorrhoeae WHO L; [10]
  MIC: > 64 µg/mL
N. gonorrhoeae WHO Q; [11]
  MIC: > 64 µg/mL

## O=C(NCCN1CCN(C(=O)N[C@@H](C(=O)N[C@H]2Cc3ccc(F)c(C(=O)O)c3OB2O)c2cc(F)c(O)c(O)c2Cl)C(=O)C1=O)Nc1cccnc1 [Example 222, (R)-3-((R)-2-(2-chloro-5-fluoro-3,4-dihydroxyphenyl)-2-(2,3-dioxo-4-(2-(3-(pyridin-3-yl)ureido)ethyl)piperazine-1-carboxamido)acetamido)-7-fluoro-2-hydroxy-3,4-dihydro-2H-benzo[e][1,2]oxaborinine-8-carboxylic acid]
[1]
  IC50: < 10 µM
P. aeruginosa ATCC 27853
  MIC: < 1 µg/mL
P. aeruginosa CDC-0095
  MIC: 8 to 16 µg/mL (≈ 10.7 to 21.5 µM)
A. baumannii CDC-0036
  MIC: 2 to 4 µg/mL (≈ 2.68 to 5.36 µM)
A. baumannii CDC-0045
  MIC: < 1 µg/mL
[2]
  MIC: 2 to 4 µg/mL (≈ 2.68 to 5.36 µM)
[3]
  MIC: 2 to 4 µg/mL (≈ 2.68 to 5.36 µM)
P. aeruginosa CDC-0110
  MIC: < 1 µg/mL
N. gonorrhoeae FA1090; [8]
  MIC: 1 to 2 µg/mL (≈ 1.34 to 2.68 µM)
N. gonorrhoeae WHO G; [9]
  MIC: 4 to 8 µg/mL (≈ 5.36 to 10.7 µM)
N. gonorrhoeae WHO L; [10]
  MIC: > 64 µg/mL
N. gonorrhoeae WHO Q; [11]
  MIC: > 64 µg/mL

## O=C(NCCN1CCN(C(=O)NC(C(=O)N[C@H]2Cc3ccc(F)c(C(=O)O)c3OB2O)c2cc(F)c(O)c(O)c2Cl)C1=O)Nc1ccncc1 (stereo partly drawn) [Example 250, (3R)-3-(2-(2-chloro-5-fluoro-3,4-dihydroxyphenyl)-2-(2-oxo-3-(2-(3-(pyridin-4-yl)ureido)ethyl)imidazolidine-1-carboxamido)acetamido)-7-fluoro-2-hydroxy-3,4-dihydro-2H-benzo[e][1,2]oxaborinine-8-carboxylic acid]
[1]
  IC50: < 10 µM
P. aeruginosa ATCC 27853
  MIC: 2 to 4 µg/mL (≈ 2.79 to 5.57 µM)
P. aeruginosa CDC-0095
  MIC: 32 to 64 µg/mL (≈ 44.6 to 89.2 µM)
A. baumannii CDC-0036
  MIC: 2 to 4 µg/mL (≈ 2.79 to 5.57 µM)
A. baumannii CDC-0045
  MIC: < 1 µg/mL
[2]
  MIC: > 128 µg/mL
[3]
  MIC: < 1 µg/mL
P. aeruginosa CDC-0110
  MIC: 2 to 4 µg/mL (≈ 2.79 to 5.57 µM)
N. gonorrhoeae FA1090; [4]
  MIC: 4 to 8 µg/mL (≈ 5.57 to 11.1 µM)
N. gonorrhoeae WHO G; [5]
  MIC: > 64 µg/mL
N. gonorrhoeae WHO L; [6]
  MIC: > 64 µg/mL
N. gonorrhoeae WHO Q; [7]
  MIC: > 64 µg/mL

## O=C(CN1CCN(C(=O)N[C@@H](C(=O)N[C@H]2Cc3ccc(F)c(C(=O)O)c3OB2O)c2cc(F)c(O)c(O)c2Cl)C(=O)C1=O)NCc1ccncc1 [Example 239, (R)-3-((R)-2-(2-chloro-5-fluoro-3,4-dihydroxyphenyl)-2-(2,3-dioxo-4-(2-oxo-2-((pyridin-4-ylmethyl)amino)ethyl)piperazine-1-carboxamido)acetamido)-7-fluoro-2-hydroxy-3,4-dihydro-2H-benzo[e][1,2]oxaborinine-8-carboxylic acid]
[1]
  IC50: < 10 µM
P. aeruginosa ATCC 27853
  MIC: 2 to 4 µg/mL (≈ 2.74 to 5.47 µM)
P. aeruginosa CDC-0095
  MIC: 2 to 4 µg/mL (≈ 2.74 to 5.47 µM)
A. baumannii CDC-0036
  MIC: 2 to 4 µg/mL (≈ 2.74 to 5.47 µM)
A. baumannii CDC-0045
  MIC: < 1 µg/mL
[2]
  MIC: 8 to 16 µg/mL (≈ 10.9 to 21.9 µM)
[3]
  MIC: 32 to 64 µg/mL (≈ 43.8 to 87.6 µM)
P. aeruginosa CDC-0110
  MIC: < 1 µg/mL
N. gonorrhoeae FA1090; [8]
  MIC: 1 to 2 µg/mL (≈ 1.37 to 2.74 µM)
N. gonorrhoeae WHO G; [9]
  MIC: 4 to 8 µg/mL (≈ 5.47 to 10.9 µM)
N. gonorrhoeae WHO L; [10]
  MIC: > 64 µg/mL
N. gonorrhoeae WHO Q; [11]
  MIC: > 64 µg/mL

Reference: patent US20240270762A1, “PENICILLIN-BINDING PROTEIN INHIBITORS” (priority 2021, published 2024)
